Test results: patent US10966426B2, “Herbicidal compositions comprising phenylpyrimidines” (BASF SE, priority 2016, dated 2021)
Read-outs that look alike come from different tables or passages of the source.

Experiments:
Assay type in all cases: in vivo
[1] = system: Setaria viridis; test: greenhouse post-emergence treatment, SETVI; details: Setaria viridis; for inhibition at 500000 µg/mL (stock): sc
Summary of the method: (§1)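 Seeds sown per species in loamy sand substrate (about 3.0% humus); some raised separately and transplanted shortly before treatment. Treatments applied in water post-emergence, plants held at 10-25° C. or 20-35° C. by species, then scored after 2 to 4 weeks, where 100 means total kill and 0 no damage.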

[2] = system: Matricaria chamomilla; test: greenhouse post-emergence treatment, MATCH; details: MATCH; for pest or weed control at 125 g/ha / inhibition at 500000 µg/mL (stock): Matricaria chamomilla; for inhibition at 500000 µg/mL (stock): sc
Summary of the method: (§2)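 Visual herbicidal effect (0–100) recorded over a 2 to 4 week test period after foliar treatment at plant heights of 3 to 15 cm. Expected combination effects derived by the Colby formula from single-component effects X and Y.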

[3] = system: Brachiaria decumbens; test: greenhouse post-emergence treatment, BRADC; details: for % activity: cinmethylin solo (EC 750 g/l); for inhibition at 500000 µg/mL (stock): sc
Summary of the method: (§3)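 Plants were grown in loamy sand with about 3.0% humus to 3–15 cm height, then sprayed with actives formulated as 10% by weight emulsion concentrates in water. Held at 10-25° C. or 20-35° C. by species for 2 to 4 weeks; damage scored 0 (none) to 100 (complete destruction).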

[4] = system: Lolium multiflorum; test: greenhouse post-emergence treatment, LOLMU; details: Lolium multiflorum
Summary of the method: as §1

[5] = system: Poa annua; test: greenhouse post-emergence treatment, POAAN; details: Poa annua
Summary of the method: as §3

[6] = system: Ambrosia elatior; test: greenhouse post-emergence treatment, AMBEL; details: for % activity: cinmethylin solo (EC 750 g/l), 21 DAT, AMBEL
Summary of the method: as §3

[7] = system: Avena fatua; test: greenhouse pre-emergence treatment, AVEFA; details: Avena fatua, 480 h, 20 DAT, AVEFA
Summary of the method: (§4)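 Pre-emergence spray of compounds, alone or as combinations formulated as 10% emulsion concentrate in water, directly after sowing in loamy sand (~3.0% humus); pots hooded until rooting, kept at 10-25° C or 20-35° C per species for 2 to 4 weeks. Damage scored 0-100 (100 = no emergence/complete destruction); Colby expected value E=X+Y−(X·Y/100).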

[8] = system: Polygonum convolvulus; test: greenhouse post-emergence treatment, POLCO; details: Fallopia convolvulus; for inhibition at 500000 µg/mL (stock): sc, POLCO
Summary of the method: as §2

[9] = system: Avena fatua; test: greenhouse post-emergence treatment, AVEFA; details: Avena fatua
Summary of the method: as §1

[10] = system: Bromus sterilis; test: greenhouse post-emergence treatment, BROST; details: Bromus sterilis; for inhibition at 500000 µg/mL (stock): sc
Summary of the method: as §1

[11] = system: Ambrosia elatior; test: greenhouse pre-emergence treatment, AMBEL; details: Ambrosia artemisiifolia, 480 h, 20 DAT, AMBEL
Summary of the method: as §4

[12] = system: Alopecurus myosuroides; test: greenhouse post-emergence treatment, ALOMY; details: Alopecurus myosuroides, 480 h, ALOMY, 20 DAT
Summary of the method: as §1

[13] = Urochloa decumbens, 504 h, read-out: % activity
[14] = 62.5 gai/ha (EC 750 g/l), Table X1, read-out: % activity, solo application
[15] = 480 h, 20 DAT, flufenacet solo 62.5 gai/ha
[16] = 480 h, 20 DAT, flufenacet solo 125 gai/ha
[17] = 480 h, 20 DAT, solo flufenacet (SC 500 g/l) 31.25 gai/ha
[18] = 480 h, 20 DAT, solo flufenacet (SC 500 g/l) 62.5 gai/ha
[19] = 480 h, 20 DAT, solo flufenacet (SC 500 g/l) 125 gai/ha
[20] = 480 h, 20 DAT, flufenacet solo 31.25 gai/ha, read-out: % activity
[21] = 480 h, 20 DAT, flufenacet solo 125 gai/ha, read-out: % activity
[22] = 480 h, 20 DAT, flufenacet solo 31.25 gai/ha
[23] = flufenacet SC 500 g/l solo 62.5 gai/ha, read-out: % activity

Cc1ccccc1CO[C@@H]1C[C@@]2(C(C)C)CC[C@]1(C)O2 (racemic) [cinmethylin]
pest or weed control at 125 g/ha ([1]; 504 h, SETVI, 21 DAT, solo cinmethylin (EC 750 g/l) 125 gai/ha): 55% | pest or weed control at 62.5 g/ha ([1]; 504 h, read-out: % activity): 20% | pest or weed control at 500 g/ha ([1]; 504 h, read-out: % activity): 85% | pest or weed control at 125 g/ha ([2]; 504 h, 21 DAT, solo cinmethylin (EC 750 g/l) 125 gai/ha): 0% | % activity ([2]; cinmethylin solo (EC 750 g/l), 125 gai/ha, 21 DAT): 0% | pest or weed control at 125 g/ha ([3]; Urochloa decumbens, 504 h, BRADC, 21 DAT, solo cinmethylin (EC 750 g/l) 125 gai/ha, read-out: % activity): 0% | pest or weed control at 500 g/ha ([3]; Urochloa decumbens, 504 h, BRADC, 21 DAT, solo cinmethylin (EC 750 g/l) 500 gai/ha): 20% | pest or weed control at 62.5 g/ha [3, 13]: 0% | pest or weed control at 250 g/ha [3, 13]: 10% | % activity ([3]; 125 gai/ha, 21 DAT, BRADC): 0% | % activity ([3]; 500 gai/ha, 21 DAT, BRADC): 20% | pest or weed control at 62.5 g/ha ([4]; 504 h, LOLMU, 21 DAT, solo cinmethylin (EC 750 g/l) 62.5 gai/ha, read-out: % activity): 0% | pest or weed control at 125 g/ha ([4]; 504 h, LOLMU, 21 DAT, solo cinmethylin (EC 750 g/l) 125 gai/ha, read-out: % activity): 30% | pest or weed control at 62.5 g/ha ([5]; 504 h, read-out: % activity): 70% | % activity ([6]; 62.5 gai/ha): 0% | % activity ([6]; 125 gai/ha): 0% | inhibition at 62.5 g/ha [7, 14]: 10% | pest or weed control at 62.5 g/ha ([8]; 504 h, read-out: % activity): 0% | pest or weed control at 125 g/ha ([8]; 504 h, read-out: % activity): 0% | pest or weed control at 250 g/ha ([8]; 504 h, read-out: % activity): 0% | pest or weed control at 500 g/ha ([8]; 504 h, read-out: % activity): 0% | pest or weed control at 125 g/ha ([9]; 504 h, read-out: % activity): 10% | pest or weed control at 62.5 g/ha ([10]; 504 h, read-out: % activity): 10% | pest or weed control at 250 g/ha ([10]; 504 h, read-out: % activity): 25% | percent weed control (herbicidal activity, 0-100 scale) at 62.5 g/ha [11, 14]: 0% | percent weed control (herbicidal activity, 0-100 scale) at 125 g/ha ([11]; 125 gai/ha (EC 750 g/l), Table X1, read-out: % activity, solo application): 0%

Cc1ccc(NC(=O)N(C)C)cc1Cl [chlorotoluron]
pest or weed control at 125 g/ha ([2]; 480 h, chlorotoluron solo 125 gai/ha, 20 DAT): 50% | pest or weed control at 500 g/ha ([4]; 480 h, LOLMU, chlorotoluron solo 500 gai/ha, 20 DAT): 80% | pest or weed control at 62.5 g/ha ([7]; chlorotoluron solo 62.5 gai/ha): 0% | pest or weed control at 125 g/ha ([9]; 480 h, AVEFA, chlorotoluron solo 125 gai/ha, 20 DAT, read-out: % activity): 0% | pest or weed control at 250 g/ha ([9]; 480 h, AVEFA, chlorotoluron solo 250 gai/ha, 20 DAT): 40% | pest or weed control at 500 g/ha ([9]; 480 h, AVEFA, chlorotoluron solo 500 gai/ha, 20 DAT): 70% | pest or weed control at 62.5 g/ha ([10]; 480 h, BROST, chlorotoluron solo 62.5 gai/ha, 20 DAT, read-out: % activity): 0% | pest or weed control at 125 g/ha ([10]; 480 h, BROST, chlorotoluron solo 125 gai/ha, 20 DAT, read-out: % activity): 0% | pest or weed control at 125 g/ha ([12]; chlorotoluron solo 125 gai/ha, read-out: % activity): 30% | pest or weed control at 250 g/ha ([12]; chlorotoluron solo 250 gai/ha, read-out: % activity): 40% | pest or weed control at 500 g/ha ([12]; chlorotoluron solo 500 gai/ha): 65% | pest or weed control at 125 g/ha ([11]; chlorotoluron solo 125 gai/ha): 0% | pest or weed control at 500 g/ha ([11]; chlorotoluron solo 500 gai/ha): 40%

CC(C)N(C(=O)COc1nnc(C(F)(F)F)s1)c1ccc(F)cc1 [flufenacet]
inhibition at 62.5 g/ha [1, 15]: 35% | inhibition at 125 g/ha [1, 16]: 55% | inhibition at 500000 µg/mL (stock) ([1]; 480 h, SETVI, 20 DAT, solo flufenacet (SC 500 g/l) 62.5 gai/ha): 35% | inhibition at 500000 µg/mL (stock) ([1]; 480 h, SETVI, 20 DAT, solo flufenacet (SC 500 g/l) 125 gai/ha): 55% | inhibition at 500000 µg/mL (stock) [2, 17]: 0% | inhibition at 500000 µg/mL (stock) [2, 18]: 0% | inhibition at 500000 µg/mL (stock) [2, 19]: 50% | inhibition at 31.25 g/ha ([3]; Urochloa decumbens, 480 h, 20 DAT, flufenacet solo 31.25 gai/ha): 0% | inhibition at 62.5 g/ha ([3]; Urochloa decumbens, 480 h, 20 DAT, flufenacet solo 62.5 gai/ha): 0% | inhibition at 125 g/ha ([3]; Urochloa decumbens, 480 h, 20 DAT, flufenacet solo 125 gai/ha): 0% | inhibition at 250 g/ha ([3]; Urochloa decumbens, 480 h, 20 DAT, flufenacet solo 250 gai/ha): 35% | inhibition at 500000 µg/mL (stock) ([3]; Urochloa decumbens, 480 h, BRADC, 20 DAT, solo flufenacet (SC 500 g/l) 31.25 gai/ha): 0% | inhibition at 500000 µg/mL (stock) ([3]; Urochloa decumbens, 480 h, BRADC, 20 DAT, solo flufenacet (SC 500 g/l) 62.5 gai/ha): 0% | inhibition at 500000 µg/mL (stock) ([3]; Urochloa decumbens, 480 h, BRADC, 20 DAT, solo flufenacet (SC 500 g/l) 125 gai/ha): 0% | inhibition at 500000 µg/mL (stock) ([3]; Urochloa decumbens, 480 h, BRADC, 20 DAT, solo flufenacet (SC 500 g/l) 250 gai/ha): 35% | inhibition at 31.25 g/ha [4, 20]: 20% | inhibition at 62.5 g/ha ([4]; 480 h, 20 DAT, flufenacet solo 62.5 gai/ha, read-out: % activity): 50% | inhibition at 125 g/ha [4, 21]: 85% | inhibition at 250 g/ha ([4]; 480 h, 20 DAT, flufenacet solo 250 gai/ha, read-out: % activity): 85% | inhibition at 31.25 g/ha [5, 22]: 70% | inhibition at 62.5 g/ha ([6]; Ambrosia artemisiifolia, 480 h, 20 DAT, flufenacet solo 62.5 gai/ha): 0% | inhibition at 125 g/ha ([6]; Ambrosia artemisiifolia, 480 h, 20 DAT, flufenacet solo 125 gai/ha): 30% | inhibition at 250 g/ha ([6]; Ambrosia artemisiifolia, 480 h, 20 DAT, flufenacet solo 250 gai/ha): 70% | inhibition at 62.5 g/ha [7, 23]: 60% | inhibition at 31.25 g/ha [8, 22]: 0% | inhibition at 62.5 g/ha [8, 15]: 30% | inhibition at 125 g/ha [8, 16]: 30% | inhibition at 500000 µg/mL (stock) [8, 17]: 0% | inhibition at 500000 µg/mL (stock) [8, 18]: 30% | inhibition at 500000 µg/mL (stock) [8, 19]: 30% | inhibition at 500000 µg/mL (stock) ([8]; 480 h, 20 DAT, solo flufenacet (SC 500 g/l) 250 gai/ha): 50% | inhibition at 31.25 g/ha [9, 20]: 30% | inhibition at 62.5 g/ha [9, 15]: 65% | inhibition at 125 g/ha [9, 21]: 65% | inhibition at 125 g/ha [10, 16]: 65% | inhibition at 250 g/ha ([10]; 480 h, 20 DAT, flufenacet solo 250 gai/ha): 80% | inhibition at 500000 µg/mL (stock) ([10]; 480 h, BROST, 20 DAT, solo flufenacet (SC 500 g/l) 125 gai/ha): 65% | inhibition at 500000 µg/mL (stock) ([10]; 480 h, BROST, 20 DAT, solo flufenacet (SC 500 g/l) 250 gai/ha): 80% | percent weed control (herbicidal activity, 0-100 scale) at 31.25 g/ha ([11]; flufenacet SC 500 g/l solo 31.25 gai/ha): 0% | percent weed control (herbicidal activity, 0-100 scale) at 62.5 g/ha [11, 23]: 0% | percent weed control (herbicidal activity, 0-100 scale) at 125 g/ha ([11]; flufenacet SC 500 g/l solo 125 gai/ha, read-out: % activity): 0%
